Assay results: patent publication US20260200888A1, “BIO-BASED COMPOUNDS” (SPECIALTY OPERATIONS FRANCE, priority 2022, published 2026)

How the values were obtained:
[1] = Solubility of mono-fungicides in the solvent of Example 1 and prior art solvents (Example 2); details: for Maximum solubility (w/v) in Cyrene: solvent Cyrene; for Maximum solubility (w/v) in Example 1: solvent Example 1; for Maximum solubility (w/v) in Rhodiasolv ADMA10: solvent Rhodiasolv ADMA10; for Maximum solubility (w/v) in Rhodiasolv PolarClean: solvent Rhodiasolv PolarClean
Excerpt: The concentration of the fungicides (w/v) was increased in 5% intervals and the highest still soluble concentration is stated in the table below.

[2] = Solubility of mono-fungicides in the solvent of Example 6 and prior art solvents (Example 7); details: 24° C.; for Maximum solubility (w/v) in Cyrene: solvent Cyrene; for Maximum solubility (w/v) in Example 6: solvent Example 6; for Maximum solubility (w/v) in Rhodiasolv ADMA10: solvent Rhodiasolv ADMA10
[3] = in Cyrene and NBP
[4] = 24° C., 5% intervals, highest still soluble concentration

| SMILES | Maximum solubility (w/v) in Cyrene ([1]; 0° C. after seeding) | Maximum solubility (w/v) in Cyrene ([1]; 24° C.) | Maximum solubility (w/v) in Example 1 ([1]; 0° C. after seeding) | Maximum solubility (w/v) in Example 1 [1, 4] | Maximum solubility (w/v) in Rhodiasolv ADMA10 ([1]; 0° C. after seeding) | Maximum solubility (w/v) in Rhodiasolv ADMA10 ([1]; 24° C.) | Maximum solubility (w/v) in Rhodiasolv PolarClean ([1]; 0° C. after seeding) | Maximum solubility (w/v) in Rhodiasolv PolarClean ([1]; 24° C.) | Maximum solubility (w/v) in Cyrene [2] | Maximum solubility (w/v) in Example 6 [2] | Maximum solubility (w/v) in Rhodiasolv ADMA10 [2] | Viscosity of the resulting NBPT solution ([3]; even at 35% (w/v)) | Appearance of the NBPT solution ([3]; even at low concentrations) |
| --- | --- | --- | --- | --- | --- | --- | --- | --- | --- | --- | --- | --- | --- |
| CO/C=C(/C(=O)OC)c1ccccc1Oc1cc(Oc2ccccc2C#N)ncn1 [Azoxystrobin] | 20% (20%) % (w/v) | 20% (20%) % (w/v) | 10% (10%) % (w/v) | 10% (10%) % (w/v) | (2%) % (w/v) | 2% (w/v) | (5%) % (w/v) | 15% (w/v) | 20% (w/v) | 10% (w/v) | 2% (w/v) |  |  |
| CCCCNP(N)(N)=S [NBPT, N-(n-butyl)thiophosphoric triamide] |  |  |  |  |  |  |  |  |  |  |  | highly viscous | yellow discoloration |
| OC(Cc1ccccc1Cl)(Cn1nc[nH]c1=S)C1(Cl)CC1 (stereo not drawn) [Prothioconazole] | 10% (10%) % (w/v) | 10% (10%) % (w/v) | 50% (50%) % (w/v) | 50% (50%) % (w/v) | (40%) % (w/v) | 40% (w/v) | (50%) % (w/v) | 50% (w/v) | 10% (w/v) | >30% (w/v) | 40% (w/v) |  |  |
| COC(=O)N(OC)c1ccccc1COc1ccn(-c2ccc(Cl)cc2)n1 [Pyraclostrobin] | 45% (45%) % (w/v) | 45% (45%) % (w/v) | 45% (45%) % (w/v) | 45% (45%) % (w/v) | (10) % (w/v) | 15% (w/v) | (45%) % (w/v) | 45% (w/v) | 45% (w/v) | >25% (w/v) | 15% (w/v) |  |  |
| CC(C)N(C)S(=O)(=O)NC(=O)c1cc(-n2c(=O)cc(C(F)(F)F)n(C)c2=O)c(F)cc1Cl [Saflufenacil] | 10% (10%) % (w/v) | 10% (10%) % (w/v) | 20% (20%) % (w/v) | 20% (20%) % (w/v) | (10%) % (w/v) | 10% (w/v) | (25%) % (w/v) | 25% (w/v) | 10% (w/v) | >10% (w/v) | 10% (w/v) |  |  |
| CC(C)(C)C(O)(CCc1ccc(Cl)cc1)Cn1cncn1 (stereo not drawn) [Tebuconazole] |  |  |  |  | (20%) % (w/v) |  | (30%) % (w/v) |  |  |  |  |  |  |
